The assay deals with T1, CDK2 (Homo sapiens, UniProt P24941).
T1 construct: endogenous in cells; host or cells: MKN1 cells
As to the kind of experiment: CDK2 degradation in MKN1 cells (AlphaLISA). Also noted: key to CDK2 degradation 14 h: Mean external-Abs DC50 (nM): A (<100 nM); B (≥100-500 nM); C (>500-1000 nM); D (>1000 nM); E (not achieved). It is filed as cell-based. Conditions: 14 h incubation; for DC50: read-out: CDK2 degradation 14 h: Mean external-Abs DC50. How it is done:
Degradation of CDK2 in MKN1 cells was measured using AlphaLISA technology (PerkinElmer ALSU-TCDK2-A10K). MKN1 cells were maintained in RPMI1640 medium containing 10% FBS+1× penn/strep. Cells were seeded in 96-well plates (Corning 3599) at a density of 2e4 cells per well in 80 μL of fresh complete growth medium. Cells were incubated overnight at 37° C., 5% CO2. Compounds were then added to the cell assay plates with a final top concentration of 10 μM in a 1:5 dilution series with a total of 11 doses (0.001 nM-10 μM). The final volume per well was 160 μL and the final DMSO concentration was 0.1%. Additionally, wells containing no cells and only complete growth medium were also maintained on the cell assay plates (‘no cell’ wells) and processed along with experimental wells. After 14 hour-incubation at 37° C., 5% CO2, the medium was removed and the cells were washed once with 100 μL of 1×PBS. Following removal of PBS, 40 μL of 1× Lysis Buffer containing 1× protease and phosphatase inhibitors (Roche 4693116001; Roche 4906837001) were added to each well. The cell assay plate was agitated on a plate shaker at 350 rpm for 10 minutes at room temperature. 10 μL of each cell lysate were transferred to a 384-well plate (PerkinElmer 6007290). 10 μL of control lysates (from PerkinElmer ALSU-TCDK2-A10K kit) were added to separate wells to generate a standard curve. Activation Buffer was prepared by diluting 25-fold in combined Reaction Buffer 1 and Reaction Buffer 2. Acceptor Beads were diluted 50-fold in combined Reaction Buffers. 5 μL of Acceptor Mix were added to each well. The plate was sealed with Topseal-Aadhesive film, covered with foil, and incubated in the dark for 1 hour at room temperature. Under subdued light, the Donor Beads were diluted 50-fold in Dilution Buffer. 5 μL of Donor Mix were added to each well under subdued light. The plate was sealed with Topseal-A adhesive film, covered with foil, and incubated in the dark for 1 hour at room temperature. Under subdued light, the plates were analyzed on an EnVision Microplate Reader (PerkinElmer Model 2009-0030). The average signal from ‘no cell’ wells was subtracted from the signal in experimental wells prior to calculating Alpha signal for test compounds and negative control (0.100 DMSO). The data were analyzed using Xlfit (v5.3. 1.3) and the dose-dependent CDK2 degradation data were fit using a four-parameter logistic model to calculate DC50.
(Bead proximity is the source of the signal in Alpha formats.)

As for `Cc1cc(S(=O)(=O)C2CC3(CCN(CC4CCN(c5ccc6c(c5)n(C)c(=O)n6C5CCC(=O)NC5=O)CC4)CC3)C2)ccc1Nc1ncc2cc(Cl)c(=O)n(C3CCCC3)c2n1` (stereo not drawn) [I-57], the “CDK2 degradation 14 h: Average Dmax %” value is “A (A (>75% o))” and the DC50 (usually the concentration at which degradation of the target reaches its halfway point) was under 0.1 µM.

On to `CC1(O)CCCN(c2nc(Nc3ccc(S(=O)(=O)NC4CC(CCN5CCN(c6ccc(C7CCC(=O)NC7=O)c(F)c6)CC5)C4)cc3C(F)F)ncc2C(F)(F)F)C1` (stereo not drawn) [I-1073], for which the “CDK2 degradation 14 h: Average Dmax %” value is “B (B (>50% -75%))” and the half-maximal degradation concentration (DC50) was under 0.1 µM.

As to `Cc1cc(S(=O)(=O)NC2CCC(OC3CCN(c4ccc(C5CCC(=O)NC5=O)cc4F)CC3)CC2)ccc1Nc1ncc(C(F)(F)F)c(N2CCCC(C)(O)C2)n1` (stereo not drawn) [I-942], the “CDK2 degradation 14 h: Average Dmax %” value is “A (A (>75% o))” and the DC50 is under 0.1 µM.

As for `Cc1cc(S(=O)(=O)NCCOC2CCN(CC3CCN(c4ccc5c(c4)n(C)c(=O)n5C4CCC(=O)NC4=O)CC3)CC2)ccc1Nc1ncc2cc(Cl)c(=O)n(C3CCCC3)c2n1` (stereo not drawn) [I-434], the “CDK2 degradation 14 h: Average Dmax %” value was “A (A (>75% o))” and the 50% degradation concentration (DC50) is under 0.1 µM.

With `CC1(O)CCCN(c2nc(Nc3ccc(S(=O)(=O)NC4CCC(CN5CCN(c6ccc(C7CCC(=O)NC7=O)cc6)CC5)CC4)cc3C(F)F)ncc2C(F)(F)F)C1` (stereo not drawn) [I-1102], the “CDK2 degradation 14 h: Average Dmax %” value is “A (A (>75% o))” and the DC50 was under 0.1 µM.

With `Cc1cc(S(=O)(=O)N2CCC(CN(CC(F)F)C3CCN(c4cccc5c4n(C)c(=O)n5C4CCC(=O)NC4=O)CC3)CC2)ccc1Nc1ncc2cc(Cl)c(=O)n(C3CCCC34CC4)c2n1` (stereo not drawn) [I-356], the “CDK2 degradation 14 h: Average Dmax %” value is listed as “D (D (<25%))” and the half-maximal degradation concentration (DC50) was over 1 µM.

For `Cc1cc(S(=O)(=O)C2CC3(CCN(CC4CCN(c5cccc6c5n(C)c(=O)n6C5CCC(=O)NC5=O)CC4)CC3)C2)ccc1Nc1ncc(C(F)(F)F)c(C2CCC(C)(O)CC2)n1` (stereo not drawn) [I-119], the “CDK2 degradation 14 h: Average Dmax %” value was “A (A (>75% o))” and the 50% degradation concentration (DC50) is under 0.1 µM.

Turning to `Cc1cc(S(=O)(=O)N2CCC(CN(C)C3CCN(c4cccc5c4n(C)c(=O)n5C4CCC(=O)NC4=O)CC3)CC2)ccc1Nc1ncc(C(F)(F)F)c(-c2cnn(C)c2)n1` (stereo not drawn) [I-1155], the “CDK2 degradation 14 h: Average Dmax %” value was “A (A (>75% o))” and the DC50 was under 0.1 µM.

For the compound `Cc1cc(S(=O)(=O)NCCOCCOCCOCCCc2ccc3c(c2)n(C)c(=O)n3C2CCC(=O)NC2=O)ccc1Nc1ncc2cc(Cl)c(=O)n(C3CCCC3)c2n1` (stereo not drawn) [I-461], the “CDK2 degradation 14 h: Average Dmax %” value is given as “A (A (>75% o))” and the DC50 is under 0.1 µM.

Consider `Cc1cc(S(=O)(=O)NC2CC(N3CCN(CC4CCN(c5ccc6c(c5F)n(C)c(=O)n6C5CCC(=O)NC5=O)CC4)CC3)C2)ccc1Nc1ncc(C(F)(F)F)c(N2CCCC(C)(O)C2)n1` (stereo not drawn) [I-830], for which the “CDK2 degradation 14 h: Average Dmax %” value is listed as “A (A (>75% o))” and the half-maximal degradation concentration (DC50) is under 0.1 µM.

Regarding `Cc1cc(S(=O)(=O)NCCCCCCc2cccc3c2n(C)c(=O)n3C2CCC(=O)NC2=O)ccc1Nc1ncc2cc(C(F)F)c(=O)n(C3CCCC3(C)O)c2n1` (stereo not drawn) [I-976], the “CDK2 degradation 14 h: Average Dmax %” value was “B (B (>50% -75%))” and the half-maximal degradation concentration (DC50) is under 0.1 µM.

`COc1cc(NC2CCC(=O)NC2=O)ccc1N1CCC(CN2CCC3(CC2)CC(S(=O)(=O)c2ccc(Nc4ncc5cc(Cl)c(=O)n(C6CCCC6)c5n4)c(C)c2)C3)CC1` (stereo not drawn) [I-77]: the “CDK2 degradation 14 h: Average Dmax %” value is given as “A (A (>75% o))” and the DC50 was under 0.1 µM.

Regarding `Cc1cc(S(=O)(=O)C2CCN(C3CC4(CCN(c5cccc6c5n(C)c(=O)n6C5CCC(=O)NC5=O)CC4)C3)CC2)ccc1Nc1ncc2c(n1)N(C1CCCC1)C(=O)C21CC1` (stereo not drawn) [I-52], the “CDK2 degradation 14 h: Average Dmax %” value was “B (B (>50% -75%))” and the DC50 fell in the range of 0.1 to 0.5 µM.

Regarding `Cc1cc(NCCOCCOCCOCCOCCCc2cccc3c2n(C)c(=O)n3C2CCC(=O)NC2=O)ccc1Nc1ncc2cc(C(F)F)c(=O)n([C@@H]3CCC[C@]3(C)O)c2n1` (stereo partly drawn) [I-490], the “CDK2 degradation 14 h: Average Dmax %” value is “A (A (>75% o))” and the DC50 was under 0.1 µM.

As for `Cc1cc(S(=O)(=O)N2CCC(CN3CCN(c4cccc5c4n(C)c(=O)n5C4CCC(=O)NC4=O)CC3)CC2)ccc1Nc1ncc2ccc(=O)n(C3CCCC3)c2n1` (stereo not drawn) [I-451], the “CDK2 degradation 14 h: Average Dmax %” value is given as “C (C (>25% -50%))” and the “CDK2 degradation 14 h: Mean external-Abs DC50 (nM)” value was “E”.

`CCc1cnc(Nc2ccc(S(=O)(=O)C3CC4(CCN(CC5CCN(c6cccc7c6n(C)c(=O)n7C6CCC(=O)NC6=O)CC5)CC4)C3)cc2C)nc1C1CCC(C)(O)CC1` (stereo not drawn) [I-514]: the “CDK2 degradation 14 h: Average Dmax %” value was “D (D (<25%))” and the half-maximal degradation concentration (DC50) was over 1 µM.

With `Cc1cc(S(=O)(=O)NC(C)COC2CCC(CN3CCN(c4ccc5c(c4F)n(C)c(=O)n5C4CCC(=O)NC4=O)CC3)CC2)ccc1Nc1ncc(C(F)(F)F)c(C2CCC(C)(O)CC2)n1` (racemic) [I-859], the half-maximal degradation concentration (DC50) is under 0.1 µM.

Consider `Cc1cc(S(=O)(=O)C2CC3(CCN(CC4CCN(c5cccc6c5n(C)c(=O)n6C5CCC(=O)NC5=O)CC4)CC3)C2)ccc1Nc1ncc(C(F)(F)F)c(N2CCC(C(C)(C)O)C2)n1` (stereo not drawn) [I-842], for which the “CDK2 degradation 14 h: Average Dmax %” value is listed as “A (A (>75% o))” and the DC50 is under 0.1 µM.

For the compound `Cc1cc(S(=O)(=O)NCCOC2CC3(C2)CN(CC#Cc2ccc4c(c2)n(C)c(=O)n4C2CCC(=O)NC2=O)C3)ccc1Nc1ncc2ccc(=O)n(C3CCCC3)c2n1` (stereo not drawn) [I-473], the “CDK2 degradation 14 h: Average Dmax %” value was “A (A (>75% o))” and the DC50 was under 0.1 µM.

On to `Cc1cc(S(=O)(=O)NCCCN2CCN(CC3CCN(c4ccc5c(c4)n(C)c(=O)n5C4CCC(=O)NC4=O)CC3)CC2)ccc1Nc1ncc2cc(Cl)c(=O)n(C(C)C)c2n1` (stereo not drawn) [I-400], for which the “CDK2 degradation 14 h: Average Dmax %” value is on record as “A (A (>75% o))” and the half-maximal degradation concentration (DC50) was under 0.1 µM.

Turning to `Cc1cc(S(=O)(=O)NC2CC(N3CCN(CC4CCN(c5cc(NC6CCC(=O)NC6=O)ccc5Cl)CC4)CC3)C2)ccc1Nc1ncc(C(F)(F)F)c(N2CCCC(C)(O)C2)n1` (stereo not drawn) [I-720], the “CDK2 degradation 14 h: Average Dmax %” value was “A (A (>75% o))” and the half-maximal degradation concentration (DC50) was under 0.1 µM.

For the compound `Cc1cc(S(=O)(=O)C2CC3(CCN(CC4CCN(c5ccc6c(c5F)n(C)c(=O)n6C5CCC(=O)NC5=O)CC4)CC3)C2)ccc1Nc1ncc2cc(Cl)c(=O)n(C(C)C3CC3)c2n1` (stereo not drawn) [I-285], the “CDK2 degradation 14 h: Average Dmax %” value was “A (A (>75% o))” and the DC50 is under 0.1 µM.

For `Cc1cc(S(=O)(=O)C2CC3(CCN(CC4CCN(c5cccc6c5n(C)c(=O)n6C5CCC(=O)NC5=O)CC4)CC3)C2)ccc1Nc1ncc2cc(Cl)c(=O)n(C3CCCC34CC4)c2n1` (stereo not drawn) [I-44], the “CDK2 degradation 14 h: Average Dmax %” value is reported as “A (A (>75% o))” and the 50% degradation concentration (DC50) was under 0.1 µM.

For `Cc1cc(S(=O)(=O)N2CC3(CCC(CN4CCN(c5ccc6c(c5F)n(C)c(=O)n6C5CCC(=O)NC5=O)CC4)CC3)C2)ccc1Nc1ncc2cc(Cl)c(=O)n(C3CCCC3)c2n1` (stereo not drawn) [I-824], the “CDK2 degradation 14 h: Average Dmax %” value was “D (D (<25%))” and the “CDK2 degradation 14 h: Mean external-Abs DC50 (nM)” value is listed as “E”.

`Cc1cc(S(=O)(=O)NCCCN2CCN(C3CCN(c4ccc5c(c4)n(C)c(=O)n5C4CCC(=O)NC4=O)CC3)CC2)ccc1Nc1ncc2cc(Cl)c(=O)n(C(C)C)c2n1` (stereo not drawn) [I-398]: the “CDK2 degradation 14 h: Average Dmax %” value was “A (A (>75% o))” and the DC50 is under 0.1 µM.

Regarding `Cc1cc(S(=O)(=O)NC(C)COC2CCC(CN3CCN(c4ccc5c(c4F)n(C)c(=O)n5C4CCC(=O)NC4=O)CC3)CC2)ccc1Nc1ncc(C(F)(F)F)c(N2CCC(C(C)(C)O)C2)n1` (stereo not drawn) [I-858], the “CDK2 degradation 14 h: Average Dmax %” value is listed as “A (A (>75% o))” and the 50% degradation concentration (DC50) is under 0.1 µM.

These data come from patent US20240173419A1, “CDK2 DEGRADERS AND USES THEREOF” (Kymera Therapeutics, Inc., priority 2022, published 2024).
